From ChEMBL document CHEMBL5236645, “Novel imidazo[1,5-a]quinoxaline derivatives: SAR, selectivity and modeling challenges en route to the identification of an α5-GABAA receptor NAM” (Bioorg Med Chem Lett, 2023) come the findings set out here.

The target of experiment [1] is T1, Gamma-aminobutyric acid receptor subunit alpha-5 (Homo sapiens, UniProt P31644).
T1 sequence (P31644 whole entry): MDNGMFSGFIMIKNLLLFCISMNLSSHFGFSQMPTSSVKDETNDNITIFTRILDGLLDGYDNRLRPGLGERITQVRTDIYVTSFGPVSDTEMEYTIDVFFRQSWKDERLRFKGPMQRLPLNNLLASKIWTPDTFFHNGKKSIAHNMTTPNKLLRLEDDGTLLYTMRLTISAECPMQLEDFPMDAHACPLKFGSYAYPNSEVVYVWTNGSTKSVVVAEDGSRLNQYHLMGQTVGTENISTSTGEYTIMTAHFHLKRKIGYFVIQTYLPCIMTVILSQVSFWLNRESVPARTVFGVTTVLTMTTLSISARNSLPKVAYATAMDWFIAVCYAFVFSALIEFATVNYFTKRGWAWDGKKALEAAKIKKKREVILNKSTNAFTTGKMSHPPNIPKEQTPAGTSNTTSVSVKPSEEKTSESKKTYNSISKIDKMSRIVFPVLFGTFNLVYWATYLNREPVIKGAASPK
As to the kind of experiment: Displacement of flumazenil from alpha5 GABAA receptor (unknown origin).

The target of experiment [2] is T2, Gamma-aminobutyric acid receptor subunit alpha-1 (Homo sapiens, UniProt P14867).
T2 sequence (P14867 whole entry): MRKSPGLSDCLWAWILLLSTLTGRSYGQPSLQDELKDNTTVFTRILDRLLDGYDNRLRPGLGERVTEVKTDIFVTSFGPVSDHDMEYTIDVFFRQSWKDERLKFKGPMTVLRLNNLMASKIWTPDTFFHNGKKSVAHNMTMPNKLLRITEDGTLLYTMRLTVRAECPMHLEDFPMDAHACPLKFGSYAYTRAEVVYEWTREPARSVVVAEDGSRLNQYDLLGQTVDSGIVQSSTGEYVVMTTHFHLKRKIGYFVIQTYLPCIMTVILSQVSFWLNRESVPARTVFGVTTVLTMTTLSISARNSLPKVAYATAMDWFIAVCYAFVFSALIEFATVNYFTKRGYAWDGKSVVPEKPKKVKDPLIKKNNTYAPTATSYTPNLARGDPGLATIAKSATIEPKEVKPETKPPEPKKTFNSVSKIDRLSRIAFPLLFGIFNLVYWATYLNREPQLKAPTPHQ
In words: Displacement of flumazenil from alpha1 GABAA receptor (unknown origin).

Experiment [3] deals with T3, Gamma-aminobutyric acid receptor subunit alpha-5 (Homo sapiens) (UniProt P31644).
T3 sequence (whole entry): T1 sequence (P31644 whole entry)
As to the kind of experiment: Displacement of flumazenil from alpha5 GABAA receptor (unknown origin) at 10 uM relative to control. Particulars: filed as modulator.

Experiment [4] concerns the target T1, Gamma-aminobutyric acid receptor subunit alpha-5. In words: Negative allosteric modulation of alpha5 GABAA (unknown origin).
Experiment [5] deals with T2, Gamma-aminobutyric acid receptor subunit alpha-1. In words: Negative allosteric modulation of alpha1 GABAA (unknown origin).
Experiment [6] concerns the target T3, Gamma-aminobutyric acid receptor subunit alpha-5 (Homo sapiens). In words: Displacement of flumazenil from alpha5 GABAA receptor (unknown origin) at 1 uM relative to control.

As to `O=c1c2cncn2c2ccc(Cl)cc2n1Cc1cccnc1`, the Ki in experiment [1] stood at 11 nM; in experiment [2], 15 nM.

Consider `O=c1[nH]c2ccccc2n2cncc12`, for which the Activity in experiment [3] amounted to 53%.

Take `O=c1c2cncn2c2ccccc2n1Cc1cccnc1`: the Ki in experiment [1] came to 28 nM; in experiment [2] it was 32 nM.

Turning to `Cc1onc(-c2ccc(F)cc2)c1COc1ccc(C(=O)N2CCS(=O)(=O)CC2)cn1` [BASMISANIL], the inhibition constant (Ki) in experiment [4] worked out at 4.4 nM; in experiment [5] it was 1210 nM.

Take `O=c1c2cncn2c2ccccc2n1Cc1ccccn1`: the inhibitory constant (Ki) in experiment [1] came out at 132 nM; in experiment [2], 52 nM.

Take `O=c1c2cncn2c2ccccc2n1-c1ccccn1`: the Activity in experiment [6] amounted to 7%.

In the case of `Cc1ccc(Cn2c(=O)c3cncn3c3ccccc32)cn1`, the Ki is 16 nM in experiment [1] and 35 nM in experiment [2].

For the compound `O=c1c2cncn2c2cc(Cl)ccc2n1Cc1cccnc1`, in experiment [1], the affinity, expressed as Ki, was 840 nM.

For `CCOC(=O)c1ncn2c1c(=O)n(Cc1cccnc1)c1cccc(Cl)c12`, the Ki was 2 nM in experiment [1] and 7 nM in experiment [2].

Take `N#Cc1cccc2c1n1cncc1c(=O)n2Cc1cccnc1`: the Activity in experiment [6] is 0%.

Consider `O=c1c2cncn2c2c(Cl)cccc2n1Cc1cccnc1`, for which the Ki in experiment [1] stood at 295 nM; in experiment [2], 2150 nM.

Regarding `Cc1cc(-c2nnc3c4ccccc4c(OCc4ccccn4)nn23)no1`, the inhibition constant (Ki) came out at 0.5 nM in experiment [4] and 0.4 nM in experiment [5].

As for `O=c1c2cncn2c2ccccc2n1Cc1cnccn1`, the inhibition constant Ki in experiment [1] is 33 nM; in experiment [2], 55 nM.

`CCn1c(=O)c2cncn2c2ccccc21` yielded an inhibitory constant (Ki) in experiment [1] of 1380 nM.

On to `Cc1cccc2c1n1cncc1c(=O)n2Cc1cccnc1`, for which the inhibition constant Ki was 86 nM in experiment [1] and 600 nM in experiment [2].

In experiment [6] (filed as modulator), `N#Cc1ccc(Cn2c(=O)c3cncn3c3ccccc32)cn1` registered an Activity of 61%.

As to `Cc1noc(C)c1Cn1c(=O)c2c(C)ncn2c2ccccc21`, the Activity in experiment [6] (filed as modulator) was found to be 65%.

In the case of `Cc1ccncc1Cn1c(=O)c2cncn2c2ccccc21`, the Ki in experiment [1] is 17 nM; in experiment [2] it was 60 nM.

Regarding `Cc1ncn2c1c(=O)n(Cc1cccnc1)c1ccccc12`, the results for the Ki in experiment [1] and in experiment [2] were 18 nM and 8 nM, respectively.

Consider `Cn1cc(Cn2c(=O)c3cncn3c3ccccc32)cn1`, for which the results for the Ki in experiment [1] and in experiment [2] were 64 nM and 123 nM, respectively.

Take `COc1ccc(Cn2c(=O)c3cncn3c3ccccc32)cc1`: the inhibitory constant (Ki) in experiment [1] turned out to be 244 nM.

Take `Cc1cc(Cn2c(=O)c3cncn3c3ccccc32)no1`: the Ki amounted to 56 nM in experiment [1] and 32 nM in experiment [2].

As to `CC(C)(C)c1ccc2c(c1)n(Cc1cccnc1)c(=O)c1cncn12`, the figures for the inhibition constant (Ki) in experiment [1] and in experiment [2] were 210 nM and 310 nM, respectively.

In experiment [6] (filed as modulator), `O=c1c2cncn2c2ccccc2n1Cc1ccccc1` displayed an Activity of 61%.

Regarding `Cc1cncc(Cn2c(=O)c3cncn3c3ccccc32)c1`, the Ki in experiment [1] worked out at 17 nM; in experiment [2], 60 nM.

Consider `Cc1cc(Cc2ncn3c2c(=O)n(Cc2ccccn2)c2ccccc23)no1`, for which the Ki in experiment [1] is 379 nM.

As to `CCOC(=O)c1ncn2c1c(=O)n(Cc1cccnc1)c1ccccc12`, the Ki in experiment [1] is 0.3 nM; in experiment [2], 0.4 nM.

Turning to `O=c1c2cncn2c2cc(F)c(F)cc2n1Cc1cccnc1`, the Activity in experiment [6] (filed as modulator) is 57%.

Take `CN1C(=O)COc2cc(Cn3c(=O)c4cncn4c4ccccc43)ccc21`: the inhibition constant Ki in experiment [1] is 48 nM; in experiment [2], 74 nM.

Take `O=c1c2cncn2c2ccccc2n1Cc1cncnc1`: the inhibition constant (Ki) in experiment [1] was 15 nM; in experiment [2] it was 30 nM.

For the compound `COc1ccc2c(c1)n(Cc1cccnc1)c(=O)c1cncn12`, the inhibitory constant (Ki) in experiment [1] worked out at 20 nM; in experiment [2] it was 120 nM.

In experiment [6], `O=c1c2cncn2c2ccccc2n1CCc1ccccn1` displayed an Activity of 29%.

Turning to `COc1ccc2c(c1)n1cncc1c(=O)n2Cc1cccnc1`, in experiment [6], the Activity came to 18%.

Compound `CCc1ncn2c1c(=O)n(Cc1ccccn1)c1ccccc12` came in with an inhibitory constant (Ki) in experiment [1] of 360 nM.

For the compound `O=C(c1ccc(Cn2c(=O)c3cncn3c3ccccc32)cn1)N1CCOCC1`, the Activity in experiment [6] was 38%.

Regarding `Cc1ncccc1Cn1c(=O)c2cncn2c2ccccc21`, the Ki in experiment [1] came to 107 nM.

In the case of `O=c1c2c(CC3CC3)ncn2c2ccccc2n1Cc1ccccn1`, the inhibition constant (Ki) is 80 nM in experiment [1] and 23 nM in experiment [2].

In turn, `O=c1c2cncn2c2cccnc2n1Cc1cccnc1` came in with a Ki in experiment [1] of 122 nM.

As to `O=c1c2cncn2c2c(Cl)cc(Cl)cc2n1Cc1cccnc1`, the Ki turned out to be 138 nM in experiment [1] and 420 nM in experiment [2].

Regarding `Cc1ncc(Cn2c(=O)c3cncn3c3ccccc32)cn1`, the results for the inhibition constant Ki in experiment [1] and in experiment [2] were 1.7 nM and 3.6 nM, respectively.

The compound `O=c1c2cncn2c2cc(OC(F)(F)F)ccc2n1Cc1cccnc1` displayed an Activity in experiment [6] (filed as modulator) of 42%.

Consider `O=c1c2c(CO)ncn2c2ccccc2n1Cc1cccnc1`, for which the results for the inhibitory constant (Ki) in experiment [1] and in experiment [2] were 52 nM and 100 nM, respectively.

`Cc1cc(Cn2c(=O)c3c(C)ncn3c3ccccc32)no1` came in with a Ki in experiment [1] of 30 nM.

`Cn1c(=O)c2cncn2c2ccccc21` showed a Ki in experiment [1] of 2190 nM.

Regarding `O=c1c2cncn2c2ccccc2n1Cc1ccncc1`, the Activity in experiment [6] (filed as modulator) came out at 62%.

`COc1cc(Cl)c2c(c1)n(Cc1cccnc1)c(=O)c1cncn12`: the inhibition constant (Ki) in experiment [1] stood at 142 nM; in experiment [2] it was 670 nM.

Regarding `Cc1ncn2c1c(=O)n(Cc1ccccn1)c1ccccc12`, the inhibitory constant (Ki) in experiment [1] came to 65 nM; in experiment [2], 16 nM.

As for `O=c1c2cncn2c2ccc(Br)cc2n1Cc1cccnc1`, the Ki was determined as 89 nM in experiment [1] and 76 nM in experiment [2].

For `O=c1c2c(Cl)ncn2c2ccccc2n1Cc1ccccn1`, the inhibitory constant (Ki) in experiment [1] stood at 12 nM; in experiment [2], 5.4 nM.

With `COc1cc(Cl)c2c(c1)n(Cc1cnccc1C)c(=O)c1cncn12`, the Ki stood at 687 nM in experiment [1] and 2100 nM in experiment [2].
